Data from the NIST ThermoML archive (doi:10.1016/j.jct.2005.04.013).
± gives the expanded uncertainty stated by the source.

experiment: activity coefficient (dimensionless); of the first substance listed, at infinite dilution; xn = mol fraction of the nth substance listed; conditions: 363.65 K; Liquid; x1 = 0

| activity coefficient | SMILES |
| --- | --- |
| 0.61 ± 0.06 | O [water] + CCCCn1cc[n+](C)c1.F[B-](F)(F)F |
| 0.68 ± 0.06 | O [water] + CCCCCCCC[n+]1ccn(C)c1.F[B-](F)(F)F |
| 2 ± 0.18 | C1CCOC1 [tetrahydrofuran] + CCCCn1cc[n+](C)c1.F[B-](F)(F)F |
| 0.45 ± 0.07 | O [water] + CCn1cc[n+](C)c1.F[B-](F)(F)F |
| 3.81 ± 0.35 | C1CCOC1 [tetrahydrofuran] + CCCCn1cc[n+](C)c1.[Cl-] |
| 1.33 ± 0.09 | CCO [ethanol] + CCn1cc[n+](C)c1.F[B-](F)(F)F |
| 0.1 | O [water] + CCCCn1cc[n+](C)c1.[Cl-] |
| 0.2 ± 0.07 | CCO [ethanol] + CCCCn1cc[n+](C)c1.[Cl-] |
| 0.4 ± 0.07 | CO [methanol] + CCn1cc[n+](C)c1.F[B-](F)(F)F |
| 1.25 ± 0.08 | CCO [ethanol] + CCCCn1cc[n+](C)c1.F[B-](F)(F)F |
| 1.09 ± 0.06 | C1CCOC1 [tetrahydrofuran] + CCCCCCCC[n+]1ccn(C)c1.F[B-](F)(F)F |
| 0.81 ± 0.06 | CCO [ethanol] + CCCCCCCC[n+]1ccn(C)c1.F[B-](F)(F)F |
| 3.48 ± 0.32 | C1CCOC1 [tetrahydrofuran] + CCn1cc[n+](C)c1.F[B-](F)(F)F |
